Data: patent US20240148709A1, “METHODS OF TREATING EYE PAIN AND EYE DISORDERS” (Aisa Pharma, Inc., priority 2022, published 2024)

Test system: participants with SSc-RP
Assay: Scleroderma Health Assessment Questionnaire (SHAQ), Phase 2a study Part A
Assay type: in vivo, human
Conditions: cilnidipine 10 mg and/or tadalafil 5 mg arms
Procedure: Part A—double-blind, placebo-controlled, parallel-group, dose selection, will assess the safety and efficacy of two doses of cilnidipine (10 mg and 20 mg), alone and in combination with tadalafil. A total of 36 participants will be randomized to one of six prespecified treatment arms. Refer to FIG. 1 for treatment arms in Part A of the study. Dosing last for 12 (±2) days in which participants will self-administer daily doses of assigned treatment in the morning. Each participant will take one capsule and one tablet to blind the active therapy being received.
The standard, validated, patient reported outcome measures tool for SSc patients, the SHAQ, will be collected at the time points specified in the study schedules (FIG. 2 and FIGS. 3A and 3B) to assess the participant's quality of life. The SHAQ includes a Raynaud's VAS that will also be reported separately.
Results: Patients in the study were administered the Scleroderma Health Assessment Questionnaire (SHAQ) at the time of study entry and during clinic visits following the treatment period. The study is a two-part, parallel arm design, prospective, double-blind, randomized study conducted in Australia (Flinders Medical Center). 27 patients were randomized into the first phase of the study, following which a DSMB meeting was held, which reviewed data on the primary study endpoint and key Raynaud's secondary endpoints. Data on the SHAQ was not available for the DSMB to review. The mITT population, in which any data was available post treatment was 24 patients was the analysis population for this first part of the study. The second part (i.e., part B) of the study will randomize 36 patients in a double blind, randomized, prospective, placebo controlled, crossover study. In the first part (i.e., Part A) of the study for which data is presented, patients were randomized into 6 groups, cilnidipine at two doses (10 and 20 mg) alone and in combination with tadalafil 5 mg, tadalafil 5 mg alone, and placebo. […] The DSMB recommended that the study proceed into its double blind prospective cross overpowered second phase and compare cilnidipine 20 mg alone to placebo.

## CN1CC(=O)N2[C@H](c3ccc4c(c3)OCO4)c3[nH]c4ccccc4c3C[C@@H]2C1=O [Tadalafil, tadalafil]
  SHAQ Finger Ulcers, Change from Baseline, Max: 1.00
  SHAQ Finger Ulcers, Change from Baseline, Mean (SD): 0.250 (0.5000)
  SHAQ Finger Ulcers, Change from Baseline, Median: 0.000
  SHAQ Finger Ulcers, Change from Baseline, Min: 0.00
  SHAQ Finger Ulcers, Change from Baseline, Q1: 0.000
  SHAQ Finger Ulcers, Change from Baseline, Q3: 0.500
  SHAQ Finger Ulcers, In Clinic Visit (Day 12), Max: 9.20
  SHAQ Finger Ulcers, In Clinic Visit (Day 12), Mean (SD): 2.325 (4.5836)
  SHAQ Finger Ulcers, In Clinic Visit (Day 12), Median: 0.050
  SHAQ Finger Ulcers, In Clinic Visit (Day 12), Min: 0.00
  SHAQ Finger Ulcers, In Clinic Visit (Day 12), Q1: 0.000
  SHAQ Finger Ulcers, In Clinic Visit (Day 12), Q3: 4.650
  SHAQ Finger Ulcers, Percent Change from Baseline, Max: 12.2%
  SHAQ Finger Ulcers, Percent Change from Baseline, Mean (SD): 6.10 (8.623) %
  SHAQ Finger Ulcers, Percent Change from Baseline, Median: 6.10%
  SHAQ Finger Ulcers, Percent Change from Baseline, Min: 0.0%
  SHAQ Finger Ulcers, Percent Change from Baseline, Q1: 0.00%
  SHAQ Finger Ulcers, Percent Change from Baseline, Q3: 12.20%
  SHAQ Overall Change in Severity, Change from Baseline, Max: 2.40
  SHAQ Overall Change in Severity, Change from Baseline, Median: 0.700
  SHAQ Overall Change in Severity, Change from Baseline, Min: −1.30
  SHAQ Overall Change in Severity, Change from Baseline, Q1: −0.600
  SHAQ Overall Change in Severity, Change from Baseline, Q3: 1.850
  SHAQ Overall Change in Severity, In Clinic Visit (Day 12), Max: 9.10
  SHAQ Overall Change in Severity, In Clinic Visit (Day 12), Mean (SD): 5.600 (4.2528)
  SHAQ Overall Change in Severity, In Clinic Visit (Day 12), Median: 6.550
  SHAQ Overall Change in Severity, In Clinic Visit (Day 12), Min: 0.20
  SHAQ Overall Change in Severity, In Clinic Visit (Day 12), Q1: 2.200
  SHAQ Overall Change in Severity, In Clinic Visit (Day 12), Q3: 9.000
  SHAQ Overall Change in Severity, Percent Change from Baseline, Max: 100.0%
  SHAQ Overall Change in Severity, Percent Change from Baseline, Mean (SD): 32.49 (51.568) %
  SHAQ Overall Change in Severity, Percent Change from Baseline, Median: 26.790%
  SHAQ Overall Change in Severity, Percent Change from Baseline, Min: −23.6%
  SHAQ Overall Change in Severity, Percent Change from Baseline, Q1: −3.48%
  SHAQ Overall Change in Severity, Percent Change from Baseline, Q3: 68.46%
  SHAQ Standard disability index, Change from Baseline, Max: 0.00
  SHAQ Standard disability index, Change from Baseline, Mean (SD): −0.063 (0.0722)
  SHAQ Standard disability index, Change from Baseline, Median: −0.063
  SHAQ Standard disability index, Change from Baseline, Min: −0.13
  SHAQ Standard disability index, Change from Baseline, Q1: −0.125
  SHAQ Standard disability index, Change from Baseline, Q3: 0.000
  SHAQ Standard disability index, In Clinic Visit (Day 12), Max: 1.00
  SHAQ Standard disability index, In Clinic Visit (Day 12), Mean (SD): 0.531 (0.4130)
  SHAQ Standard disability index, In Clinic Visit (Day 12), Median: 0.563
  SHAQ Standard disability index, In Clinic Visit (Day 12), Min: 0.00
  SHAQ Standard disability index, In Clinic Visit (Day 12), Q1: 0.250
  SHAQ Standard disability index, In Clinic Visit (Day 12), Q3: 0.813
  SHAQ Standard disability index, Percent Change from Baseline, Max: 0.0%
  SHAQ Standard disability index, Percent Change from Baseline, Mean (SD): −9.26 (8.486) %
  SHAQ Standard disability index, Percent Change from Baseline, Median: −11.11%
  SHAQ Standard disability index, Percent Change from Baseline, Min: −16.7%
  SHAQ Standard disability index, Percent Change from Baseline, Q1: −16.67%
  SHAQ Standard disability index, Percent Change from Baseline, Q3: 0.00%
  SHAQ Visual Analog Scale-Breathing Problems, Change from Baseline, Max: 2.80
  SHAQ Visual Analog Scale-Breathing Problems, Change from Baseline, Mean (SD): 0.500 (2.5599)
  SHAQ Visual Analog Scale-Breathing Problems, Change from Baseline, Median: 1.050
  SHAQ Visual Analog Scale-Breathing Problems, Change from Baseline, Min: −2.90
  SHAQ Visual Analog Scale-Breathing Problems, Change from Baseline, Q1: −1.450
  SHAQ Visual Analog Scale-Breathing Problems, Change from Baseline, Q3: 2.450
  SHAQ Visual Analog Scale-Breathing Problems, In Clinic Visit (Day 12), Max: 9.20
  SHAQ Visual Analog Scale-Breathing Problems, In Clinic Visit (Day 12), Mean (SD): 4.300 (4.8840)
  SHAQ Visual Analog Scale-Breathing Problems, In Clinic Visit (Day 12), Median: 4.000
  SHAQ Visual Analog Scale-Breathing Problems, In Clinic Visit (Day 12), Min: 0.00
  SHAQ Visual Analog Scale-Breathing Problems, In Clinic Visit (Day 12), Q1: 0.100
  SHAQ Visual Analog Scale-Breathing Problems, In Clinic Visit (Day 12), Q3: 8.500
  SHAQ Visual Analog Scale-Breathing Problems, Percent Change from Baseline, Max: 56.0%
  SHAQ Visual Analog Scale-Breathing Problems, Percent Change from Baseline, Mean (SD): −2.66 (79.815) %
  SHAQ Visual Analog Scale-Breathing Problems, Percent Change from Baseline, Median: 29.58%
  SHAQ Visual Analog Scale-Breathing Problems, Percent Change from Baseline, Min: −93.5%
  SHAQ Visual Analog Scale-Breathing Problems, Percent Change from Baseline, Q1: −93.55%
  SHAQ Visual Analog Scale-Breathing Problems, Percent Change from Baseline, Q3: 56.00%
  SHAQ Visual Analog Scale-Intestinal Problems, Change from Baseline, Max: 1.80
  SHAQ Visual Analog Scale-Intestinal Problems, Change from Baseline, Mean (SD): −0.125 (1.6800)
  SHAQ Visual Analog Scale-Intestinal Problems, Change from Baseline, Median: 0.000
  SHAQ Visual Analog Scale-Intestinal Problems, Change from Baseline, Min: −2.30
  SHAQ Visual Analog Scale-Intestinal Problems, Change from Baseline, Q1: −1.150
  SHAQ Visual Analog Scale-Intestinal Problems, Change from Baseline, Q3: 0.900
  SHAQ Visual Analog Scale-Intestinal Problems, In Clinic Visit (Day 12), Max: 9.20
  SHAQ Visual Analog Scale-Intestinal Problems, In Clinic Visit (Day 12), Mean (SD): 3.025 (4.3162)
  SHAQ Visual Analog Scale-Intestinal Problems, In Clinic Visit (Day 12), Median: 1.450
  SHAQ Visual Analog Scale-Intestinal Problems, In Clinic Visit (Day 12), Min: 0.00
  SHAQ Visual Analog Scale-Intestinal Problems, In Clinic Visit (Day 12), Q1: 0.050
  SHAQ Visual Analog Scale-Intestinal Problems, In Clinic Visit (Day 12), Q3: 6.000
  SHAQ Visual Analog Scale-Intestinal Problems, Percent Change from Baseline, Max: 24.3%
  SHAQ Visual Analog Scale-Intestinal Problems, Percent Change from Baseline, Mean (SD): −6.92 (35.225) %
  SHAQ Visual Analog Scale-Intestinal Problems, Percent Change from Baseline, Median: 0.00%
  SHAQ Visual Analog Scale-Intestinal Problems, Percent Change from Baseline, Min: −45.1%
  SHAQ Visual Analog Scale-Intestinal Problems, Percent Change from Baseline, Q1: −45.10%
  SHAQ Visual Analog Scale-Intestinal Problems, Percent Change from Baseline, Q3: 24.32%
  SHAQ Visual Analog Scale-Pain, Change from Baseline, Max: 1.50
  SHAQ Visual Analog Scale-Pain, Change from Baseline, Mean (SD): 1.000 (0.4359)
  SHAQ Visual Analog Scale-Pain, Change from Baseline, Median: 0.800
  SHAQ Visual Analog Scale-Pain, Change from Baseline, Min: 0.70
  SHAQ Visual Analog Scale-Pain, Change from Baseline, Q1: 0.700
  SHAQ Visual Analog Scale-Pain, Change from Baseline, Q3: 1.500
  SHAQ Visual Analog Scale-Pain, In Clinic Visit (Day 12), Max: 9.20
  SHAQ Visual Analog Scale-Pain, In Clinic Visit (Day 12), Mean (SD): 5.300 (4.1577)
  SHAQ Visual Analog Scale-Pain, In Clinic Visit (Day 12), Median: 5.850
  SHAQ Visual Analog Scale-Pain, In Clinic Visit (Day 12), Min: 0.30
  SHAQ Visual Analog Scale-Pain, In Clinic Visit (Day 12), Q1: 1.900
  SHAQ Visual Analog Scale-Pain, In Clinic Visit (Day 12), Q3: 8.700
  SHAQ Visual Analog Scale-Pain, Percent Change from Baseline, Max: 75.0%
  SHAQ Visual Analog Scale-Pain, Percent Change from Baseline, Mean (SD): 31.35 (37.825) %
  SHAQ Visual Analog Scale-Pain, Percent Change from Baseline, Median: 10.81%
  SHAQ Visual Analog Scale-Pain, Percent Change from Baseline, Min: 8.2%
  SHAQ Visual Analog Scale-Pain, Percent Change from Baseline, Q1: 8.24%
  SHAQ Visual Analog Scale-Pain, Percent Change from Baseline, Q3: 75.00%
  SHAQ Visual Analog Scale-Raynaud's, Change from Baseline, Max: −0.10
  SHAQ Visual Analog Scale-Raynaud's, Change from Baseline, Mean (SD): −0.825 (0.9674)
  SHAQ Visual Analog Scale-Raynaud's, Change from Baseline, Median: −0.500
  SHAQ Visual Analog Scale-Raynaud's, Change from Baseline, Min: −2.20
  SHAQ Visual Analog Scale-Raynaud's, Change from Baseline, Q1: −1.500
  SHAQ Visual Analog Scale-Raynaud's, Change from Baseline, Q3: −0.150
  SHAQ Visual Analog Scale-Raynaud's, In Clinic Visit (Day 12), Max: 9.20
  SHAQ Visual Analog Scale-Raynaud's, In Clinic Visit (Day 12), Mean (SD): 4.950 (3.7749)
  SHAQ Visual Analog Scale-Raynaud's, In Clinic Visit (Day 12), Median: 5.200
  SHAQ Visual Analog Scale-Raynaud's, In Clinic Visit (Day 12), Min: 0.20
  SHAQ Visual Analog Scale-Raynaud's, In Clinic Visit (Day 12), Q1: 2.200
  SHAQ Visual Analog Scale-Raynaud's, In Clinic Visit (Day 12), Q3: 7.700
  SHAQ Visual Analog Scale-Raynaud's, Percent Change from Baseline, Max: −3.1%
  SHAQ Visual Analog Scale-Raynaud's, Percent Change from Baseline, Mean (SD): −19.71 (16.460) %
  SHAQ Visual Analog Scale-Raynaud's, Percent Change from Baseline, Median: −20.67%
  SHAQ Visual Analog Scale-Raynaud's, Percent Change from Baseline, Min: −34.4%
  SHAQ Visual Analog Scale-Raynaud's, Percent Change from Baseline, Q1: −33.85%
  SHAQ Visual Analog Scale-Raynaud's, Percent Change from Baseline, Q3: −5.56%
  SHAQ alternative disability index, Change from Baseline, Max: 0.00
  SHAQ alternative disability index, Change from Baseline, Mean (SD): −0.094 (0.0625)
  SHAQ alternative disability index, Change from Baseline, Median: −0.125
  SHAQ alternative disability index, Change from Baseline, Min: −0.13
  SHAQ alternative disability index, Change from Baseline, Q1: −0.125
  SHAQ alternative disability index, Change from Baseline, Q3: −0.063
  SHAQ alternative disability index, In Clinic Visit (Day 12), Max: 1.00
  SHAQ alternative disability index, In Clinic Visit (Day 12), Mean (SD): 0.375 (0.4787)
  SHAQ alternative disability index, In Clinic Visit (Day 12), Median: 0.250
  SHAQ alternative disability index, In Clinic Visit (Day 12), Min: 0.00
  SHAQ alternative disability index, In Clinic Visit (Day 12), Q1: 0.000
  SHAQ alternative disability index, In Clinic Visit (Day 12), Q3: 0.750
  SHAQ alternative disability index, Percent Change from Baseline, Max: −11.1%
  SHAQ alternative disability index, Percent Change from Baseline, Mean (SD): −43.70 (48.956) %
  SHAQ alternative disability index, Percent Change from Baseline, Median: −20.00%
  SHAQ alternative disability index, Percent Change from Baseline, Min: −100.0%
  SHAQ alternative disability index, Percent Change from Baseline, Q1: −100.00%
  SHAQ alternative disability index, Percent Change from Baseline, Q3: −11.11%
